# Assays:
# Test in all cases: NCI-60 screening, one-dose (10 µM) and five-dose, SRB
# SNB-19 = type: cell-based
# SK-MEL-28 = type: cell-based, human
# K-562 = type: cell-based, human; settings: five-dose, K-562
# SK-MEL-5 = type: cell-based, human
# SK-MEL-2 = type: cell-based, human
# EKVX = type: cell-based, human; settings: Homo sapiens, 10 μM, Non-Small-Cell Lung Cancer, read-out: Growth percentage
# DU-145 = type: cell-based, human
# A498 = type: cell-based
# CAKI-1 = type: cell-based
# ACHN = type: cell-based, human
# HOP-92 = type: cell-based, human
# HCT-15 = type: cell-based, human
# BT-549 = type: cell-based
# NCI-H226 = type: cell-based, human
# TK-10 = type: cell-based, human
# MDA-MB231/ATCC = type: cell-based; settings: Homo sapiens
# [1] = Homo sapiens, five-dose, SNB-19
# [2] = Homo sapiens, five-dose, SK-MEL-28
# [3] = Homo sapiens, five-dose, SK-MEL-5
# [4] = Homo sapiens, five-dose, SK-MEL-2
# [5] = Homo sapiens, five-dose, DU-145
# [6] = Homo sapiens, five-dose, CAKI-1
# [7] = Homo sapiens, five-dose, HOP-92
# [8] = Homo sapiens, five-dose, HCT-15
# [9] = Homo sapiens, five-dose, BT-549
# [10] = Homo sapiens, five-dose, NCI-H226
compound,measurement,setting,value
"Cc1nc(SCC(=O)N2CCN(c3cc4c(cc3F)c(=O)c(C(=O)O)cn4C3CC3)CC2)sc1C(=O)/C=C/c1cccc(Cl)c1 [Compound 4b, (E)-7-(4-(2-((5-(3-(3-Chlorophenyl)acryloyl)-4-methylthiazol-2-yl)thio)acetyl)piperazin-1-yl)-1-cyclopropyl-6-fluoro-4-oxo-1,4-dihydroquinoline-3-carboxylic Acid]",activity at 10 µM,"SNB-19; Homo sapiens, 10 μM, SNB-19, CNS Cancer, read-out: Growth percentage",54.7%
same,GI50,SNB-19; [1],22.4 µM
same,IC50,SNB-19; [1],49 µM
same,CC50,"SNB-19; Homo sapiens, five-dose, SNB-19, read-out: LC50 (the source's name)",> 100 µM
same,TGI,"SNB-19; five-dose, SNB-19",100.0 µM
same,activity at 10 µM,"SK-MEL-28; Homo sapiens, 10 μM, SK-MEL-28, Melanoma, read-out: Growth percentage",84.1%
same,GI50,SK-MEL-28; [2],26.9 µM
same,IC50,SK-MEL-28; [2],87.1 µM
same,CC50,"SK-MEL-28; Homo sapiens, five-dose, SK-MEL-28, read-out: LC50 (the source's name)",> 100 µM
same,TGI,"SK-MEL-28; five-dose, SK-MEL-28",100.0 µM
same,GI50,"K-562; Homo sapiens, K562",4.2 µM
same,IC50,"K-562; Homo sapiens, K562",4.9 µM
same,CC50,"K-562; Homo sapiens, K562, read-out: LC50 (the source's name)",> 100 µM
same,TGI,K-562,100.0 µM
same,activity at 10 µM,"SK-MEL-5; Homo sapiens, 10 μM, SK-MEL-5, Melanoma, read-out: Growth percentage",50.3%
same,GI50,SK-MEL-5; [3],21.9 µM
same,IC50,SK-MEL-5; [3],> 100 µM
same,CC50,"SK-MEL-5; Homo sapiens, five-dose, SK-MEL-5, read-out: LC50 (the source's name)",> 100 µM
same,TGI,"SK-MEL-5; five-dose, SK-MEL-5",100.0 µM
same,activity at 10 µM,"SK-MEL-2; Homo sapiens, 10 μM, SK-MEL-2, Melanoma, read-out: Growth percentage",60.8%
same,GI50,SK-MEL-2; [4],46.8 µM
same,IC50,SK-MEL-2; [4],> 100 µM
same,CC50,"SK-MEL-2; Homo sapiens, five-dose, SK-MEL-2, read-out: LC50 (the source's name)",> 100 µM
same,TGI,"SK-MEL-2; five-dose, SK-MEL-2",100.0 µM
same,activity at 10 µM,EKVX,83.9%
same,activity at 10 µM,"DU-145; Homo sapiens, 10 μM, DU-145, Prostate Cancer, read-out: Growth percentage",94.6%
same,GI50,DU-145; [5],> 100 µM
same,IC50,DU-145; [5],> 100 µM
same,CC50,"DU-145; Homo sapiens, five-dose, DU-145, read-out: LC50 (the source's name)",> 100 µM
same,TGI,"DU-145; five-dose, DU-145",100.0 µM
same,activity at 10 µM,"A498; Homo sapiens, A498, 10 μM, A498, Renal Cancer, read-out: Growth percentage",36%
same,GI50,"A498; Homo sapiens, five-dose, A498",> 100 µM
same,IC50,"A498; Homo sapiens, five-dose, A498",> 100 µM
same,CC50,"A498; Homo sapiens, five-dose, A498, read-out: LC50 (the source's name)",> 100 µM
same,TGI,"A498; five-dose, A498",100.0 µM
same,activity at 10 µM,"CAKI-1; Homo sapiens, 10 μM, CAKI-1, Renal Cancer, read-out: Growth percentage",102%
same,GI50,CAKI-1; [6],87.1 µM
same,IC50,CAKI-1; [6],> 100 µM
same,CC50,"CAKI-1; Homo sapiens, five-dose, CAKI-1, read-out: LC50 (the source's name)",> 100 µM
same,TGI,"CAKI-1; five-dose, CAKI-1",100.0 µM
same,activity at 10 µM,"ACHN; Homo sapiens, 10 μM, Renal Cancer, read-out: Growth percentage",99.1%
same,GI50,"ACHN; Homo sapiens, five-dose",> 100 µM
same,IC50,"ACHN; Homo sapiens, five-dose",> 100 µM
same,CC50,"ACHN; Homo sapiens, five-dose, read-out: LC50 (the source's name)",> 100 µM
same,TGI,ACHN; five-dose,100.0 µM
same,activity at 10 µM,"HOP-92; Homo sapiens, 10 μM, HOP-92, Non-Small-Cell Lung Cancer, read-out: Growth percentage",101%
same,GI50,HOP-92; [7],44.7 µM
same,IC50,HOP-92; [7],> 100 µM
same,LC50 (concentration killing 50% of cells),HOP-92; [7],> 100 µM
same,TGI,"HOP-92; five-dose, HOP-92",100.0 µM
same,activity at 10 µM,"HCT-15; Homo sapiens, 10 μM, HCT-15, Colon Cancer, read-out: Growth percentage",26.9%
same,IC50,HCT-15; [8],> 100 µM
same,LC50 (50% lethal concentration),HCT-15; [8],> 100 µM
same,TGI,"HCT-15; five-dose, HCT-15",100.0 µM
same,activity at 10 µM,"BT-549; Homo sapiens, 10 μM, BT-549, Breast Cancer, read-out: Growth percentage",-62.2%
same,GI50,BT-549; [9],15.8 µM
same,IC50,BT-549; [9],35.5 µM
same,CC50,"BT-549; Homo sapiens, five-dose, BT-549, read-out: LC50 (the source's name)",85.1 µM
same,TGI,"BT-549; five-dose, BT-549",36.3 µM
same,activity at 10 µM,"NCI-H226; Homo sapiens, 10 μM, NCI-H226, Non-Small-Cell Lung Cancer, read-out: Growth percentage",80.9%
same,GI50,NCI-H226; [10],> 100 µM
same,IC50,NCI-H226; [10],> 100 µM
same,LC50 (concentration killing 50% of cells),NCI-H226; [10],> 100 µM
same,TGI,"NCI-H226; five-dose, NCI-H226",100.0 µM
same,activity at 10 µM,"TK-10; Homo sapiens, 10 μM, TK-10, Renal Cancer, read-out: Growth percentage",108%
same,GI50,"TK-10; Homo sapiens, five-dose, TK-10",> 100 µM
same,IC50,"TK-10; Homo sapiens, five-dose, TK-10",> 100 µM
same,CC50,"TK-10; Homo sapiens, five-dose, TK-10, read-out: LC50 (the source's name)",> 100 µM
same,TGI,"TK-10; five-dose, TK-10",100.0 µM
same,GI50,MDA-MB231/ATCC; MDA-MB-231,> 100 µM
same,IC50,MDA-MB231/ATCC; MDA-MB-231,> 100 µM
same,CC50,"MDA-MB231/ATCC; five-dose, MDA-MB-231/ATCC, read-out: LC50 (the source's name)",> 100 µM

# — paper PMC12655637, “Design, Synthesis, and Mechanistic Study of Novel Ciprofloxacin/Thiazole Chalcone Hybrids as Potential Anticancer Agents” (Pharmaceuticals, 2025)
